Experimental data taken from PMC5334615, “Induction of Diverse Bioactive Secondary Metabolites from the Mangrove Endophytic Fungus Trichoderma sp. (Strain 307) by Co-Cultivation with Acinetobacter johnsonii (Strain B2)” (Marine Drugs, 2017).

Legend:
[1] = molecular target: α-glucosidase (Saccharomyces cerevisiae, UniProt P53341); assay type: biochemical
Experimental: The assay of α-glucosidase inhibitory activity was carried out according to the reported method, with minor modifications. All of the assays were performed under 0.01 M potassium phosphate buffer (pH 7). Enzyme solutions were prepared to give 2.0 Units/mL in 2 mL buffer solution. Test samples were dissolved in dimethyl sulphoxide (DMSO) to give an initial concentration of 4000 μM/L. One-hundred fifty-five microliters of phosphate buffer, 10 μL of test samples, and 10 μL of diluted enzyme solution were mixed in each well of a 96-well microtiter plate. After 20 min incubation at 37 °C, 25 μL of substrate (p-nitrophenyl-α-D-glucopyranoside, 1.5 mg/mL) was added to each well to begin the enzymatic reaction. The reaction was monitored spectrophotometrically by measuring the absorbance at 410 nm for a 1 min interval. […] All measurements were done in triplicate from two independent experiments. The reported IC50 was the average value of two independent experiments.

[2] = tested on: rat pituitary adenoma GH3 cell lines; assay: MTT cytotoxicity assay, GH3 cells; assay type: cell-based; conditions: MTT method, read-out: Cytotoxicity IC50 against GH3 cell lines
Experimental: (§1) The cytotoxic activities against rat pituitary adenoma MMQ and GH3 cell lines were evaluated by MTT assay following the previous process. Briefly, MMQ and GH3 cell lines were seeded in 96-well plates (Corning, New York, NY, USA) at a density of 5 × 10^4 cells per well. Then, 10 μL of MTT reagent was added to each well and incubated at 37 °C with 5% CO2 for 4 h. Subsequently, 100 μL of acidified isopropyl alcohol was added. Then the OD value was measured at 450 nm using a microplate reader and the cell proliferation rate relative to the control was calculated. The IC50 was analyzed by SPSS 13.0 (SPSS, Chicago, IL, USA). Rat normal pituitary cells were used as a positive control.

[3] = tested on: rat prolactinoma MMQ cell lines; assay: MTT cytotoxicity assay, MMQ cells; assay type: cell-based; conditions: MTT method, read-out: Cytotoxicity IC50 against MMQ cell lines
Experimental: as §1

[4] = MTT cytotoxicity assay, rat normal pituitary cells; assay type: cell-based; conditions: rat, rat normal pituitary cells (RPC); MTT method; normal cells used as control; read-out: Cytotoxicity IC50 against rat normal pituitary cells (RPC)
Experimental: as §1

[5] = tested on: rat normal pituitary cells (RPC); assay: MTT cytotoxicity assay, rat normal pituitary cells; assay type: cell-based; conditions: tumour cell IC50 compared with RPC IC50
Experimental: as §1

Sequence of α-glucosidase (P53341 whole entry): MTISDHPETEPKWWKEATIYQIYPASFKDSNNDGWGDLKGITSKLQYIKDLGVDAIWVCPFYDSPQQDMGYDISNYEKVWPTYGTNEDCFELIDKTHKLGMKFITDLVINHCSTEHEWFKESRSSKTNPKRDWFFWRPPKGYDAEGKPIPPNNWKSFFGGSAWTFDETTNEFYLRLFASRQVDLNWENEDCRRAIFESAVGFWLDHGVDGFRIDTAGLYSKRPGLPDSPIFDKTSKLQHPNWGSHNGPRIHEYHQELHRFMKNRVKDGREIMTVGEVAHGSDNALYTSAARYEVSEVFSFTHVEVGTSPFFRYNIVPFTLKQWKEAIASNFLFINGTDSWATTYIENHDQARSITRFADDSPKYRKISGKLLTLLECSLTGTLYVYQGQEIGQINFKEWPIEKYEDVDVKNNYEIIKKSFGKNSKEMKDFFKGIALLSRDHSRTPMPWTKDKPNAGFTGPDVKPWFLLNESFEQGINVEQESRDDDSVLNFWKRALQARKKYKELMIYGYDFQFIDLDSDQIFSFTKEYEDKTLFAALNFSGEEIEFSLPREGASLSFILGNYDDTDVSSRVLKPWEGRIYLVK

| Structure (SMILES) | α-Glucosidase inhibitory effect, fold better than acarbose [1] | IC50 [2] [µM] | IC50 [3] [µM] | IC50 [4] [µM] | Cytotoxicity against GH3/MMQ cells, fold better than against RPC cells [5] |
| --- | --- | --- | --- | --- | --- |
| COc1cc(O)cc2c1C(=O)O[C@H](C)CCCCC/C=C/2 [Compound 16, (E)-9-etheno-lasiodiplodin] | seven-fold |  |  |  |  |
| C[C@H]1CCC(=O)CCCCc2cc(O)cc(O)c2C(=O)O1 [Compound 8, (3S)-6-oxo-de-O-methyllasiodiplodin] |  | 21.4 | 13.6 | 143 | seven-fold |
| C[C@@H]1CCCCCCCC(=O)Cc2cc(O)cc(O)c2C(=O)O1 [Compound 17, (3R)-nordinone] | seven-fold | 12.3 | 10.1 | 100 | ten-fold |
| C[C@@H]1CCCCCCCc2cc(O)cc(O)c2C(=O)O1 [Compound 9, (3R)-de-O-methyllasiodiplodin] |  | 6.44 | 6.58 | 6.94 |  |
